Reference: patent publication US20060258582A1, “Method of treating myelodysplastic syndromes” (Scios, Inc., priority 2004, published 2006)
Values belong to the compound of their own block, whether it stands above or below them.

Experiments:
MDS CD34+ progenitors = experiment: methylcellulose clonogenic assay, MDS CD34+ progenitors; format: cell-based, human; conditions: for erythroid (BFU-E) and myeloid (CFU-GM) colony formation in MDS CD34+ bone marrow cells: in vitro, methylcellulose
Procedure: MDS BM-derived CD34+ cells from 19 patients with MDS (Table 5) were cultured in methylcellulose in the presence and absence of increasing concentrations of compound 57. Results are expressed as means+/−SEM of 19 independent experiments.
(A) Total colony numbers of (A) Blast Forming unit-erythroid (BFU-E) and (B) Colony forming unit-Granulocytic Macrophage (CFU-GM) before (control) and after compound 57 treatment (100 nM) of 19 patients with MDS (Table 5).
(§1) All participants in the study signed informed consent, approved by the institutional review board of UT Southwestern and Dallas VA Medical Center. Hematopoietic progenitor colony formation was determined by clonogenic assays in methylcellulose, as detailed in previous studies. A total of 1×10^4 isolated CD34+ progenitor cells in 0.4 ml IMDM+2% FBS were resuspended in 4 ml MethoCult® (Stem Cell Technologies) and vortexed vigorously. The CD34+ cell:methylcellulose mixture was dispensed into 35 mm culture dishes (1×10^3 cells/35 mm plate) using sterile 3 cc syringe with attached sterile 16-gauge blunt-end needle. Cell cultures were incubated at 37° C., 5% CO2 in air and >95% humidity for 14-16 days. Granulocyte/macrophage colony-forming (CFU-GM) units and erythroid burst forming units (BFU-E) from different samples were scored on day 14 of culture.

IFNγ = experiment: induction of IFNγ by anti-CD3 antibody; format: cell-based; conditions: data not shown
BMSC = experiment: cDNA microarray analysis of chemokines in TNFα- or IL-1β-stimulated BMSC; format: cell-based, human
Text: Details of microarray and data analysis have been described previously. The data was normalized using the maNorm function in array package of Bioconductor version 1.5.8. Differential expression values were expressed as the ratio of the median of background-subtracted fluorescence intensity of the experimental RNA to the median of background-subtracted fluorescence intensity of the control RNA. The total BMSC RNA was extracted from cells using Qiagen's RNeasy kit (Valencia, Calif.). Arrays were probed in quadruplicate for a total of 16 hybridizations: control versus TNFα (24 hours), TNFα versus compound 57+TNFα (24 hours), control versus IL-1β (24 hours), IL-1β versus compound 57+IL-1β (24 hours).

p38β = p38β (Homo sapiens, UniProt Q15759); experiment: selectivity for p38α over p38β; format: biochemical
Procedure: (§2) The p38α MAPK inhibitor compound 57 was synthesized by Medicinal Chemistry (Scios, Inc., Fremont, Calif.). compound 57 has an IC50 of 9 nM for inhibition of p38α based on direct enzymatic assays, about 10-fold selectivity for p38α over p38β, and at least 2000-fold selectivity for p38α over a panel of 20 other kinases, including other MAPKs.

normal CD34+ progenitors = experiment: methylcellulose clonogenic assay, cytokine-suppressed normal CD34+ progenitors; format: cell-based, human
Procedure: Primary bone marrow derived CD34+ cells were cultured in methylcellulose in the presence and absence of 20 ng/ml TNFα and with the indicated concentrations of compound 57 (nM). BFU-E and CFU-GM colonies were scored on Day 14. Results are expressed as means+/−S.E.M. of three independent experiments.
Primary bone marrow derived CD34+ cells were cultured in methylcellulose in the presence and absence of […] IFNγ and with the indicated concentrations of the p38α inhibitors (compound 57; nM) or compound 162. BFU-E and CFU-GM colonies were scored on Day 14. Results are expressed as means+/−S.E.M. of three independent experiments.
as §1, with “Cell cultures were incubated at 37° C., 5% CO2 in air and >95% humidity for 14-16 days.” left out

[1] = system: TNFα secretion from BMMNC; experiment: basal and LPS-induced TNFα secretion from normal BMMNC, ELISA; format: cell-based; conditions: Homo sapiens, basal or LPS-induced normal BMMNC cultures, 24 h, read-out: IC50 for inhibition of TNFα secretion
Procedure: BMMNC (1×10^6) from a normal healthy donor were cultured in the absence and presence of increasing concentrations of compound 57 for 24 hours without or with 10 ng/ml LPS. TNFα concentration in cell supernatants were determined by ELISA. Figure represents Mean+/−SD of three independent experiments.
(§3) TNFα, IL-6, VEGF, and IFNγ concentrations of the cell culture supernatants were assayed using ELISA kits from BioSource International (Camarillo, Calif.). MCP-1, MMP-2 and MMP-9 concentrations were assayed using ELISA kits from R&D Systems.

p38α = p38α (Homo sapiens, UniProt Q16539); experiment: direct enzymatic assay for inhibition of p38α; format: biochemical; conditions: direct enzymatic assays
Procedure: as §2

[2] = system: LPS-induced TNFα secretion in whole human blood; experiment: cell based assay, LPS-induced TNFα secretion in whole human blood; conditions: read-out: IC50 for inhibition of LPS-induced TNFα secretion
Procedure: Other in vitro assays can assess the production of TNF-α as a correlation to p38 MAP kinase activity. One such example is a Human Whole Blood Assay. In this assay, venous blood is collected from, e.g., healthy male volunteers into a heparinized syringe and is used within 2 hours of collection. Test compounds are dissolved in 100% DMSO and 1 μl aliquots of drug concentrations ranging from 0 to 1 mM are dispensed into quadruplicate wells of a 24-well microtiter plate (Nunclon Delta SI, Applied Scientific Co., San Francisco, Calif.). Whole blood is added at a volume of 1 ml/well and the mixture is incubated for 15 minutes with constant shaking (Titer Plate Shaker, Lab-Line Instruments, Inc., Melrose Park, Ill.) at a humidified atmosphere of 5% CO2 at 37° C. Whole blood is cultured either undiluted or at a final dilution of 1:10 with RPMI 1640 (Gibco 31800+NaHCO3, Life Technologies, Rockville, Md. and Scios, Inc., Sunnyvale, Calif.). At the end of the incubation period, 10 μl of LPS (E. coli 0111:B4, Sigma Chemical Co., St. Louis, Mo.) is added to each well to a final concentration of 1 or 0.1 μg/ml for undiluted or 1:10 diluted whole blood, respectively. The incubation is continued for an additional 2 hours. The reaction is stopped by placing the microtiter plates in an ice bath, and plasma or cell-free supernates are collected by centrifugation at 3000 rpm for 10 minutes at 4° C. […]

IFNγ production = IFNγ production in IL-12 and IL-18-induced BMMNC, ELISA; format: cell-based; conditions: Homo sapiens, 24 hours, read-out: IC50 for block of IFNγ production
Procedure: BMMNC (1×10^6) from a normal healthy donor were stimulated with IL-12, IL-18 or both in the presence or absence of increasing concentrations of compound 57 for 24 h. IFN-γ concentration in cell supernatants was determined by ELISA. Figure represents Mean+/−SD of three independent experiments.
as §3

[3] = microarray ratio IL-1β versus compound 57+IL-1β, 24 hours
[4] = microarray ratio TNFα versus compound 57+TNFα

Sequence of p38α (Q16539 whole entry): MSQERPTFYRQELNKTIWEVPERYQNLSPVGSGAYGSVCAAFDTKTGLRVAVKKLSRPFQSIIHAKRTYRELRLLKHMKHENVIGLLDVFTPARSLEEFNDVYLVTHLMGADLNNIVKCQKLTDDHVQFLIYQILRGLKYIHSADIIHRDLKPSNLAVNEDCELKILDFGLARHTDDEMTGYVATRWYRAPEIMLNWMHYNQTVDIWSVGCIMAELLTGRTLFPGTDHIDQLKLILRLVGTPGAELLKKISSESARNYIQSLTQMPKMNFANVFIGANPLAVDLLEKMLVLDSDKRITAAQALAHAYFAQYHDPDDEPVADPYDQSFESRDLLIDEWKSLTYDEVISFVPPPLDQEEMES
Sequence of p38β (Q15759 whole entry): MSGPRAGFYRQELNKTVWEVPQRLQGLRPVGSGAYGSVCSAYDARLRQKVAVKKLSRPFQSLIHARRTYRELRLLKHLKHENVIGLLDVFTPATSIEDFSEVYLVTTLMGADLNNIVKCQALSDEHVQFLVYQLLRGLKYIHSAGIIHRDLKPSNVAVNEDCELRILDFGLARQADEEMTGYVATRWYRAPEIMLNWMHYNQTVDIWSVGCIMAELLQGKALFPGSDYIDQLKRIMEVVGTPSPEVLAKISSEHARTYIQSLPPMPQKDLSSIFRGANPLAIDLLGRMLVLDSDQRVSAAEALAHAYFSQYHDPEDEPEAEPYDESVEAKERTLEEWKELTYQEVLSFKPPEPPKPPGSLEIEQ

Structure (SMILES): COc1cccc(-c2cc(=O)c3ccccc3o2)c1N [PD 98059]
erythroid (BFU-E) and myeloid (CFU-GM) colony formation in MDS CD34+ bone marrow cells (MDS CD34+ progenitors): not observed

Structure (SMILES): CCc1nc(-c2ccc(OC)cc2)[nH]c1-c1ccncc1 [SB 202474]
erythroid (BFU-E) and myeloid (CFU-GM) colony formation in MDS CD34+ bone marrow cells (MDS CD34+ progenitors): not observed

selectivity for p38α over p38β (p38β): about 10 fold
IC50 (p38α): 9 nM
IC50 [2]: 1300 nM
IC50 (IFNγ production): < 50 nM
Structure (SMILES): COc1cc2c(cc1C(=O)N1C[C@H](C)N(Cc3ccc(F)cc3)C[C@H]1C)c(C(=O)C(=O)N(C)C)cn2C [compound 57]
induction of IFNγ by anti-CD3 antibody (IFNγ): not inhibited
CCL2 (MCP-1) differential expression, C57 + IL-1β (BMSC; [3]): −1.4
CCL7 (MCP3) differential expression, C57 + IL-1β (BMSC; [3]): −1.5
CXCL1 (GROα) differential expression, C57 + IL-1β (BMSC; [3]): −1.6
CXCL3 (GROγ) differential expression, C57 + IL-1β (BMSC; [3]): 1.3
CXCL6 (GCP2) differential expression, C57 + IL-1β (BMSC; [3]): −1.6
CXCL10 (IP10) differential expression, C57 + IL-1β (BMSC; [3]): 1.0
CXCL11 (ITAC) differential expression, C57 + IL-1β (BMSC; [3]): 0.0
CXCL16 (SR-PSOX) differential expression, C57 + IL-1β (BMSC; [3]): −4.2
CCL2 (MCP-1) differential expression, C57 + TNFα (24 h) (BMSC; [4]): −1.7
CCL7 (MCP3) differential expression, C57 + TNFα (24 h) (BMSC; [4]): −2.2
CXCL1 (GROα) differential expression, C57 + TNFα (24 h) (BMSC; [4]): −2.9
CXCL3 (GROγ) differential expression, C57 + TNFα (24 h) (BMSC; [4]): −1.6
CXCL6 (GCP2) differential expression, C57 + TNFα (24 h) (BMSC; [4]): −5.3
CXCL10 (IP10) differential expression, C57 + TNFα (24 h) (BMSC; [4]): −2.9
CXCL11 (ITAC) differential expression, C57 + TNFα (24 h) (BMSC; [4]): −1.4
CXCL16 (SR-PSOX) differential expression, C57 + TNFα (24 h) (BMSC; [4]): 1.4
increase in both BFU-E and CFU-GM colony numbers compared to those without compound (normal CD34+ progenitors; TNFα-treated CD34+ progenitors, 50 nM compound): about 100%
IC50 [1]: 50 nM
increase in myeloid and erythroid colony numbers in MDS progenitors (MDS CD34+ progenitors; 20 nM-100 nM compound): 2-3 fold

Structure (SMILES): CN(C)C(=O)C(=O)c1c[nH]c2cc(Cl)c(C(=O)N3CCC(Cc4ccc(F)cc4)CC3)cc12 [compound 162]
IFNγ-induced suppression of erythroid and myeloid colony formation (normal CD34+ progenitors; normal CD34+ progenitors, IFNγ, day 14): reverses
